In brackets after ≈: the same amount, converted by molar mass. Like-named read-outs stand apart in the source and are kept apart here.
Key:
[1] = tested on: Corynebacterium sp.; test: MIC on mass basis (Example V procedure); assay type: cell-based
Method: (§1) The essential procedure of Example I was followed with a series of phenolic compounds, with the exception that the test method was conducted on a mass (μg/ml) basis rather than a molecular (mol/ml) basis of the foregoing tests, since the long established phenol-coeffecient test is on a mass rather than molecular basis. Additionally, a different but closely related group of organisms were used in this test, in order to give a complete representative span on gram-negative, gram-positive and fungus organisms. Additionally, the phenolic derivatives chosen for test purposes include a number of derivatives which are presently accepted by the FDA as food-grade phenolic microbicides.

[2] = tested on: Candida albicans; test: MIC on mass basis (Example V procedure); assay type: cell-based; details: Candida albicans
Method: as §1
(§2) The same procedure of Example V was repeated but with combinations of mono-laurin (GML).
(§3) The procedure of Example V was repeated with combinations of glycerol mono-laurin (GML) and ethylenediamine tetraacetic acid (EDTA) as the calcium salt and in combination with BHA.

[3] = tested on: Streptococcus agalactiae; test: MIC on mass basis (Example V procedure); assay type: cell-based; details: Streptococcus agalactiae
Method: as §1, §2, §3

[4] = tested on: Pseudomonas aeruginosa; test: MIC on mass basis (Example V procedure); assay type: cell-based; details: Pseudomonas aeruginosa
Method: as §1, §2, §3

[5] = tested on: Escherichia coli; test: MIC on mass basis (Example V procedure); assay type: cell-based; details: Escherichia coli
Method: as §1, §2, §3

[6] = tested on: Staphylococcus aureus; test: MIC on mass basis (Example V procedure); assay type: cell-based; details: Staphylococcus aureus
Method: as §1, §2, §3

[7] = tested on: Nocardia asteroides; test: MIC on mass basis (Example V procedure); assay type: cell-based
Method: as §1, §2, §3

[8] = tested on: Saccharomyces cerevisiae; test: MIC on mass basis (Example V procedure); assay type: cell-based; details: Saccharomyces cerevisiae
Method: as §1, §2, §3

[9] = tested on: Streptococcus mutans; test: MIC on mass basis (Example V procedure); assay type: cell-based, Streptococcus mutans (ATCC 10441); details: Streptococcus mutans
Method: as §1, §2, §3

[10] = tested on: Pneumococci; test: MIC, broth dilution (Examples I/II); assay type: cell-based, pneumococcus (63001); details: Table 8, Pneumococci
Method: (§4) In order to establish comparative bactericidal and fungicidal results with homologous fatty acids, a series of experiments was performed with thirty straight-chain fatty acids and derivatives thereof. Eight different gram-negative and twelve different gram-positive organisms, representing a very broad spectrum of organisms, were used in these experiments including the fungus Candida (a yeast). Additionally, fatty acids were chosen to show the effects of saturation versus unsaturation, in the fatty acid claim. Standard solutions of the fatty acids and their derivatives were prepared by first dissolving the weighed compounds in 1 to 2 ml of 95% ethanol and immediately pouring this solution into 200 ml of Tripticase Soy Broth. These lipid compounds which are insoluble in water and broth precipitated into very small crystals or droplets. The tubes containing the suspension were warmed to approximately 70° C and were then placed in an ultrasonic tank for further solubilization of the lipid derivatives.
(§5) Standard solutions (or suspensions) at 1,000 μg/ml were twofold serially diluted with additional broth to a concentration of 125 μg/ml. A 4-ml amount of each dilution was then quickly, and with constant agitation, dispensed into appropriately labeled screw-capped glass tubes (16 by 125 mm). The tubes were sterilized with steam at 15 psi for 15 minutes. After sterilization, all tubes were cooled and incubated overnight at 35° C to insure sterility.
(§6) All compounds were compared on a molar (micromoles/milliliter) rather than on a mass basis. In the following lists of organisms used, those followed by a parenthetical number are registered with the American Type Culture Collection (ATCC); the remainder were isolates from Providence Hospital or Northland Laboratory.
(§7) One drop (0.04 ± 0.01 ml) of an 18-hr broth culture containing 10^7 and 10^9 organisms/ml was added to each dilution of the test compound, as well as to a tube of plain broth which served as the positive control. After inoculation, the contents of each tube were well mixed, and the tubes were incubated at 35° C in a 5% carbon dioxide + […] atmosphere.
(§8) The MIC is defined as the lowest concentration of compound at which no […] evidence of growth was observed when turbidity of the inoculated broth dilutions was compared with control tubes. […] Only a one-tube difference between the bactericidal and bacteriostatic concentrations was normally observed.
(§9) Standard solutions (1000 μg/ml) of three fatty acids and polyglycerol esters thereof were prepared as described in Example I. Also sucrose esters were prepared by transferring the weighed compounds (0.2 gm. dissolved in 1 ml absolute methanol) into 200 ml of sterile Trypticase Soy Broth (TSB). These standard solutions (1000 μg/ml) were twofold serially diluted with additional sterile broth to a concentration of 125 μg/ml. A 3.8 aliquot of each dilution was asceptically delivered into sterile screw-capped culture tubes. All tubes were incubated overnight at 36° C to insure sterility. The microorganisms used in this example were the same as those used in Example I.
(§10) The inoculum, 0.05 ml of an 13-24 hour TSB culture (approximately 10^9 organisms/ml) was asceptically delivered into all dilutions of the compounds, mixed well, and incubated at 36° C. A tube of inoculated broth without the compound served as a positive control and an uninoculated set of dilutions incubated along with the test dilutions, served as a negative control.
(§11) In those cases in which the test compound itself caused turbidity, an aliquot (0.015 ml) of the mixed broth was inoculated onto an agar plate and incubated at 36° C for examination, as described in Example I. The control procedure of Example I was also repeated. The lauric, capric, and oleic acids were used as internal controls and for comparison to Example I. The minimal inhibitory concentrations (μmole/ml) for the compounds studied are given in Tables 7 and 8.

[11] = tested on: Micrococci; test: MIC, broth dilution (Examples I/II); assay type: cell-based, Micrococcus sp.; details: Table 8, Micrococci
Method: as §4, §5, §6, §7, §8, §9, §10, §11

[12] = tested on: Nocardia asteroides; test: MIC, broth dilution (Examples I/II); assay type: cell-based, Nocardia asteroids (3308); details: Table 8, Nocardia asteroides; for MIC (second value, in parentheses): parentheses not explained
Method: as §4, §5, §6, §7, §8, §9, §10, §11

[13] = tested on: Corynebacteria; test: MIC, broth dilution (Examples I/II); assay type: cell-based, Corynebacterium sp. (10700); details: Table 8, Corynebacteria; for MIC (second value, in parentheses): parentheses not explained
Method: as §4, §5, §6, §7, §8, §9, §10, §11

[14] = tested on: S. epidermidis; test: MIC, broth dilution (Examples I/II); assay type: cell-based; details: for MIC: Table 8, Staph. epider., > = no inhibition, max. tested
Method: as §4, §5, §6, §7, §8, §9, §10, §11

[15] = tested on: Streptococcus Group A; test: MIC, broth dilution (Examples I/II); assay type: cell-based, beta-hemolytic streptococci Group A; details: Table 8, Strep. Grp. A; for MIC (second value, in parentheses): parentheses not explained
Method: as §4, §5, §6, §7, §8, §9, §10, §11

[16] = tested on: Sarcina; test: MIC, broth dilution (Examples I/II); assay type: cell-based, Sarcina lutea (9431); details: for MIC: Table 8, Sarcina, > = no inhibition, max. tested
Method: as §4, §5, §6, §7, §8, §9, §10, §11

[17] = tested on: Streptococcus Group D; test: MIC, broth dilution (Examples I/II); assay type: cell-based; details: Table 3, Streptococcus Group D
Method: as §4, §5, §6, §7, §8, §9, §10, §11

Compound | MIC [10] | MIC [11] | MIC [12] | MIC [13] | MIC [14] | MIC [15] | MIC [16] | MIC (second value, in parentheses) [12] | MIC (second value, in parentheses) [13] | MIC (second value, in parentheses) [15] | other results
CC(C)(C)c1cc(O)cc(C(C)(C)C)c1 [3,5-di-tert-butylphenol] | – | – | – | – | – | – | – | – | – | – | MIC ([1]; Corynebacterium): 15.6 µg/mL (≈ 75.6 µM); MIC [2]: 62.5 µg/mL; MIC [3]: 31.2 µg/mL; MIC [4]: > 1000 µg/mL; MIC [5]: > 1000 µg/mL; MIC [6]: 31.2 µg/mL; MIC ([7]; Nocardia asteroides): 15.6 µg/mL; MIC [8]: 62.5 µg/mL; MIC [9]: 15.6 µg/mL
Sucrose caprate | 60 µM | 1000 µM | 250 µM | 250 µM | > 2000 µM | 60 µM | > 2000 µM | – | – | – | –
Sucrose myristate | 230 µM | 230 µM | 230 µM | 110 µM | > 1840 µM | 50 µM | > 1840 µM | 110 µM | 110 µM | 110 µM | –
Sucrose oleate | 50 µM | 210 µM | 410 µM | > 1640 µM | > 1640 µM | > 1640 µM | > 1640 µM | 210 µM | > 1640 µM | 410 µM | –
O=C(O)CCCCCCCCCCC(=O)O [Dodecanedioic acid] | – | – | – | – | – | – | – | – | – | – | MIC [17]: Ni
Sucrose palmitate | 50 µM | 260 µM | 430 µM | 430 µM | 860 µM | 100 µM | 430 µM | > 1720 µM | 260 µM | 200 µM | Inhibition in words ([14]; S. epidermis): only ester which inhibits S. epidermis; Inhibition in words ([16]; Sarcina): only ester which inhibits S. epidermis and Sarcina
CC(C)(C)c1cc(C(C)(C)C)c(O)c(C(=O)O)c1O [3,5-di-tert-butyl-2,6-dihydroxbenzoic] | – | – | – | – | – | – | – | – | – | – | MIC ([1]; Table 11, Corynebacterium sp., read-out: MIC): 15.6 µg/mL (≈ 58.6 µM); MIC ([2]; Table 11, Candida albicans, read-out: MIC): 500 µg/mL; MIC ([3]; Table 11, Strepococcus agalactiae, read-out: MIC): 15.6 µg/mL; MIC ([4]; Table 11, Pseudomonas aeruginosa, read-out: MIC): > 1000 µg/mL; MIC ([5]; Table 11, Escherichia coli, read-out: MIC): > 1000 µg/mL; MIC ([6]; Table 11, Staphylococcus aureus, read-out: MIC): 31.2 µg/mL; MIC ([7]; Table 11, Nocardia asteroides, read-out: MIC): 15.6 µg/mL; MIC [8]: 500 µg/mL; MIC ([9]; Table 11, Strepococcus mutans, read-out: MIC): 31.2 µg/mL

Reference: patent US4067997A, “Synergistic microbecidal composition and method” (priority 1976, dated 1978)
